These results are taken from ChEMBL document CHEMBL6078714, “Discovery of N-Trifluoromethylated Noscapines as Novel and Potent Agents for the Treatment of Glioblastoma” (J Med Chem, 2025).

Active and inactive are the calls of the source. The calls are words filed in the database; no cut-off is given here.

Series [1] concerns U-118-MG. In words: Cell cycle arrest in human U-118-MG cells assessed as accumulation of cells at G1 phase at 10 uM incubated for 24 hrs by flow cytometric analysis (reference value: 56.2 %). Type of series: functional.
Series [2] relates to U-118-MG. In words: Cell cycle arrest in human U-118-MG cells assessed as accumulation of cells at S phase at 30 uM incubated for 24 hrs by flow cytometric analysis (reference value: 10.7 %). The format is functional. (In flow cytometry, cells or beads pass a laser one at a time.)
Series [3] in a line: Toxicity in male BALB/c nude mouse xenografted with human U-118-MG cells assessed as effect on serum AST level at 2.5 to 10 mg/kg, ip administered daily for 4 weeks. The format is organism-based. The settings on record: in vivo, 672 h, dose 2.5-10 mg/kg.
Series [4] has as its system U-118-MG. In words: Cell cycle arrest in human U-118-MG cells assessed as accumulation of cells at S phase at 20 uM incubated for 24 hrs by flow cytometric analysis (reference value: 10.7 %). Type of series: functional.
Series [5] has as its system U-118-MG. In words: Cell cycle arrest in human U-118-MG cells assessed as accumulation of cells at G2 phase at 30 uM incubated for 24 hrs by flow cytometric analysis (reference value: 30.6 %). Type of series: functional.
Series [6] relates to U-118-MG. In words: Cytotoxicity against human U-118-MG cells assessed as reduction in cell viability at 0.1 to 10 uM incubated for 24 hrs. Type of series: functional, cell-based. The settings on record: dose 0.1-10 µM.
Series [7] has as its system U-118-MG. In words: Antitumor activity against human U-118-MG cells xenografted in male BALB/c nude mouse assessed as suppression of tumor growth at 2.5 to 10 mg/kg, ip administered daily for 4 weeks. Type of series: functional, organism-based. The settings on record: dose 2.5-10 mg/kg. A general note: In xenograft studies the graft and the host belong to different species.

A short description of series [8]: Bioavailability in Sprague-Dawley rat at 5 mg/kg, ip. The format is ADME, organism-based. The settings on record: in vivo.
Series [9] deals with U-118-MG. In words: Induction of apoptosis in human U-118-MG cells assessed as apoptotic rate at 20 uM incubated for 24 hrs by Annexin V-FITC/PI staining based flow cytometric analysis relative to control. Type of series: functional.
Series [10] is described as follows: Permeability of compound incubated for 12 hrs by PAMPA. The format is ADME. The settings on record: read-out: permeability.
Series [11] can be described thus: Ratio of drug concentration in Sprague-Dawley rat brain to plasma at 5 mg/kg, ip measured after 4 hrs. Type of series: ADME, organism-based. The settings on record: read-out: BPR.
The test system of series [12] is U-118-MG. In words: Cell cycle arrest in human U-118-MG cells assessed as accumulation of cells at G2 phase at 10 uM incubated for 24 hrs by flow cytometric analysis (reference value: 30.6 %). Type of series: functional.
Series [13] has as its system U-118-MG. In words: Antitumor activity against human U-118-MG cells xenografted in male BALB/c nude mouse assessed as tumor growth inhibition at 5 mg/kg, ip administered daily for 4 weeks relative to control. Type of series: functional. The settings on record: 672 h, read-out: TGI.
Series [14] has as its system U-118-MG. In words: Cell cycle arrest in human U-118-MG cells assessed as accumulation of cells at S phase at 3 uM incubated for 24 hrs by flow cytometric analysis (reference value: 10.7 %). The format is functional.
The nature of series [15]: Toxicity in male BALB/c nude mouse xenografted with human U-118-MG cells assessed as effect on serum ALT level at 2.5 to 10 mg/kg, ip administered daily for 4 weeks. The format is organism-based. The settings on record: in vivo, 672 h, dose 2.5-10 mg/kg.
The test system of series [16] is U-118-MG. In words: Inhibition of cell migration in human U-118-MG cells incubated for 24 hrs by transwell assay. Type of series: functional, cell-based. The settings on record: dose 0.1-10 µM.
The subject of series [17] is U-118-MG. In words: Induction of apoptosis in human U-118-MG cells incubated for 24 hrs by Annexin V-FITC/PI staining based flow cytometric analysis. Type of series: functional, cell-based. The settings on record: dose 3-40 µM.
In series [18] the test system is U-118-MG. In words: Inhibition of cell migration in human U-118-MG cells assessed as decrease in number of migrating cells at 1 uM incubated for 24 hrs by transwell assay. Type of series: functional, cell-based.

For `COc1ccc2c(c1OC)C(=O)O[C@@H]2[C@H]1c2c(c(Br)c3c(c2OC)OCO3)CCN1C(F)(F)F`, the Activity is recorded as 56.6% in the series with U-118-MG [1]; 14.8% in the series with U-118-MG [2]; “Non-toxic” in [3]; 9.68% in the series on U-118-MG [4]; 52.2% in the series on U-118-MG [5]; 23.7% with U-118-MG [9]. In addition, the Activity in the series with U-118-MG [12] was 32.1%; with U-118-MG [14], 10.4%; in series [15], “Non-toxic”; with U-118-MG [17] it was “Dose-dependent-effect”. Moreover, the outcome in the series on U-118-MG [6] was inactive. The result in the series with U-118-MG [7] was Active. The bioavailability (in general, the share of a dose that reaches the circulation, judged against a reference dose that is usually intravenous) in series [8] turned out to be 61.3%. Also, the Papp at 12 h in series [10] worked out at 12.1 ×10⁻⁶ cm/s. In addition, in series [11], the Kp at 4 h worked out at 0.517. In the series with U-118-MG [13], the inhibition in vivo at 5 mg/kg came to 37.7%. The results for the inhibition entry in the series on U-118-MG [16] and with U-118-MG [18] were “Dose-dependent-effect” and “Active; Superior Inhibitory Activity Compared To Noscapine And Tmz”, respectively.
